In publication PMC6429183, “Identification of Compounds That Inhibit Estrogen-Related Receptor Alpha Signaling Using High-Throughput Screening Assays” (Molecules, 2019):
Several values for one entry are separate records, joined by “and”; a condition that tells them apart may be missing. Equal entries are not always repeated. Where two headings read alike, the source gives them in different places.

Columns and labels:
[1] = test system: PGC/ERR reporter HEK293 cells; assay: CellTiter-Fluor cell viability assay multiplexed with PGC/ERR reporter assay; format: cell-based; conditions: for EC50: Homo sapiens; for PGC/ERR-HEK293 Follow-Up Viability EC50: follow-up screen
Description: (§1) ERR or PGC/ERR reporter HEK293 cells suspended in culture medium without puromycin were dispensed at 2500 cells/5 μL/well in tissue culture–treated 1536-well white assay plates (Greiner Bio-One North America, Monroe, NC, USA) using a Thermo Scientific Multidrop Combi (ThermoFisher Scientific, Inc.). […] After the cells were incubated at 37 °C with 5% CO2 for 6 h, 23 nL of compounds or control, XTC790, was transferred into the assay plates using a Wako Pintool station (Wako Automation, San Diego, CA, USA). The assay plates were incubated at 37 °C for 18 h, followed by the addition of 5 μL ONE-Glo luciferase reagent (Promega, Madison, WI, USA) using a Flying Reagent Dispenser (Aurora Discovery, Carlsbad, CA, USA). After 30 min of incubation at room temperature, the luminescence intensity of the assay plates was quantified using a ViewLux plate reader (PerkinElmer, Shelton, CT, USA). The assays were performed three times for each compound concentration. These ERR and PGC/ERR reporter assays were multiplexed with the CellTiter-Fluor Cell Viability Assay (Promega), a fluorescence-based cell viability assay, to assess compound cytotoxicity.
The qHTS data were analyzed as described previously. Each titration point was normalized relative to the positive control compound (XCT790 = −100%) and DMSO-only wells (0%) according to the following equation: % Activity = [(Vcompound − VDMSO)/(VDMSO − Vpos)] × 100, where Vcompound denotes the compound well values, Vpos denotes the median value of the positive control wells, and VDMSO denotes the median values of the DMSO-only wells. The DMSO-only compound plates at the beginning and end of the compound plate stack were used to correct the data set by applying an in-house pattern correction algorithm. The half maximum inhibition values (IC50) for each compound and maximum response (efficacy) values were obtained by fitting the concentration-response curves of each compound to a four-parameter Hill equation [91]. Compounds were designated as Class 1–4 according to the type of concentration–response curve observed. For each reading, the activity outcome of a test compound was first categorized by the average curve rank from the triplicate runs and the reproducibility calls. The final activity outcome of each compound was based on the ERR antagonist readout activity and cell viability counter screen.

[2] = test system: ERR reporter HEK293 cells; assay: CellTiter-Fluor cell viability assay multiplexed with ERR reporter assay; format: cell-based; conditions: for EC50: Homo sapiens; for ERR-HEK293 Follow-Up Viability EC50: follow-up screen
Description: as §1
The qHTS data were analyzed as described previously. […] The DMSO-only compound plates at the beginning and end of the compound plate stack were used to correct the data set by applying an in-house pattern correction algorithm. The half maximum inhibition values (IC50) for each compound and maximum response (efficacy) values were obtained by fitting the concentration-response curves of each compound to a four-parameter Hill equation [91]. […] For each reading, the activity outcome of a test compound was first categorized by the average curve rank from the triplicate runs and the reproducibility calls. The final activity outcome of each compound was based on the ERR antagonist readout activity and cell viability counter screen.

cytochrome c = assay: qRT-PCR mRNA expression of ERR downstream gene cytochrome c; format: cell-based; conditions: ERR reporter cells, vs GAPDH, DMSO = 0%
Description: (§2) Total RNA was isolated from treated ERR reporter cells using an RNeasy Mini Kit (Qiagen, Germantown, MD, USA), homogenized using a QIAshredder (Qiagen), and reverse transcribed with a High-Capacity RNA-to-cDNA™ Kit (ThermoFisher Scientific, Inc.) following the manufacturers’ instructions. Expression of ERRα, COX8α, IDH3α, PPARα, COX4I1, and cytochrome c genes was normalized against GAPDH. All primers were purchased from ThermoFisher Scientific, Inc. Real-time PCR assays were performed in 384-well plates on a QuantStudio 5 (Applied Biosystems, Foster City, CA, USA) with TaqMan™ Gene Expression Master Mix (ThermoFisher Scientific, Inc.). Induction values were calculated using the equation: Fold = 2^ΔΔCt, where ΔCt represents the differences in cycle threshold numbers between each of the target genes and GAPDH, and ΔΔCt represents the relative change in these differences between control and treatment groups. Experimental data are presented as a mean of triplicate determinations ± SD. Statistical comparisons were made by t-test, while the statistical significance was set at p values of <0.05 (light blue), <0.01 (medium blue), and <0.001 (dark blue).

IDH3α = assay: qRT-PCR mRNA expression of ERR downstream gene IDH3α; format: cell-based; conditions: ERR reporter cells, vs GAPDH, DMSO = 0%
Description: as §2

[3] = biological target: T1, estrogen-related receptor alpha (ERRα) (Homo sapiens, UniProt P11474); assay: ERR reporter (luciferase) antagonist qHTS assay, ERR-HEK293; conditions: for EC50: mean ± SD, triplicate; for activity in the ERR assay: in words
T1 sequence (P11474 1-423): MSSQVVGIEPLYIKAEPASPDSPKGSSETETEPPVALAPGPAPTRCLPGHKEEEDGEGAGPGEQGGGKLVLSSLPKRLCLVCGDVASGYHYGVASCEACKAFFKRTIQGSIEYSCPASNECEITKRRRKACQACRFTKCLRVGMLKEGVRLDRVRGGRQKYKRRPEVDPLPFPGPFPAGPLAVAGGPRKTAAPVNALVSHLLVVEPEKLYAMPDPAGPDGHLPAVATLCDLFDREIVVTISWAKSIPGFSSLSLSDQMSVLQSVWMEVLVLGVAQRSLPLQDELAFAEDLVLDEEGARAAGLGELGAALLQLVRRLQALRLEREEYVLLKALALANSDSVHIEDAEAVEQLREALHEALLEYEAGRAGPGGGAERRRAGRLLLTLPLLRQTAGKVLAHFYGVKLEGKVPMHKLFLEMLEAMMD
Description: (§3) The ERR reporter HEK293 cells were cultured in high glucose DMEM medium (ThermoFisher Scientific, Inc., Waltham, MA, USA) supplemented with 10% fetal bovine serum (FBS; ThermoFisher Scientific, Inc.), 4 mM of L-glutamine (ThermoFisher Scientific, Inc.), 1 mM of sodium pyruvate (ThermoFisher Scientific, Inc.), 100 U/mL of penicillin and 100 mg/mL of streptomycin (ThermoFisher Scientific, Inc.). PGC/ERR reporter HEK293 cells were cultured in the same medium as the ERR reporter HEK293 cells with an additional 1 μg/mL puromycin (ThermoFisher Scientific, Inc.) as the selection marker for PGC-1α expression.
(§4) The DMSO-only compound plates at the beginning and end of the compound plate stack were used to correct the data set by applying an in-house pattern correction algorithm [90]. The half maximum inhibition values (IC50) for each compound and maximum response (efficacy) values were obtained by fitting the concentration-response curves of each compound to a four-parameter Hill equation [91]. […] For each reading, the activity outcome of a test compound was first categorized by the average curve rank from the triplicate runs and the reproducibility calls. The final activity outcome of each compound was based on the ERR antagonist readout activity and cell viability counter screen.

[4] = biological target: T2, ERRα with PGC-1α (PGC/ERR pathway) (Homo sapiens, UniProt P11474)
T2 sequence (P11474 1-423): T1 sequence (P11474 1-423)

[5] = biological target: T2, ERRα with PGC-1α (PGC/ERR pathway); assay: PGC/ERR reporter (luciferase) qHTS assay, PGC/ERR-HEK293; conditions: for EC50: mean ± SD, triplicate; for activity in the ERR/PGC assay: in words
[6] = biological target: T1, estrogen-related receptor alpha (ERRα)
Description: as §3, §4

COX4I1 = assay: qRT-PCR mRNA expression of ERR downstream gene COX4I1; format: cell-based; conditions: 175 nM; ERR reporter cells; vs GAPDH, DMSO = 0%
Description: as §2, with “Experimental data are presented as a mean of triplicate determinations ± SD. Statistical comparisons were made by t-test, while the statistical significance was set at p values of <0.05 (light blue), <0.01 (medium blue), and <0.001 (dark blue).” left out

[7] = HEK293, primary qHTS, read-out: PGC/ERR-HEK293 Primary Viability EC50 (converted)
[8] = ERR-HEK293 Follow-Up EC50, follow-up (confirmation) screen
[9] = ERR-HEK293 Primary EC50, primary qHTS, 18 h, 15 concentrations
[10] = PGC/ERR-HEK293 Follow-Up EC50, follow-up screen
[11] = PGC/ERR-HEK293 Primary EC50, primary qHTS, 18 h
[12] = primary qHTS, viability counter screen

Row | SMILES | EC50 [1, 7] [µM] | PGC/ERR-HEK293 Follow-Up Viability EC50 [1] | ERR-HEK293 Follow-Up Viability EC50 [2] | EC50 [3, 8] [µM] | EC50 [3, 9] [µM] | PGC/ERR-HEK293 Follow-Up Efficacy [4] [%] | PGC/ERR-HEK293 Primary Efficacy [4] [%] | EC50 [5, 10] [µM] | EC50 [5, 11] [µM] | ERR-HEK293 Follow-Up Efficacy [6] [%] | ERR-HEK293 Primary Efficacy [6] [%] | ERR-HEK293 Primary Viability EC50 [2, 12] | activity in the ERR assay [3] | activity in the ERR/PGC assay [5] | also measured
1 | COC(=O)N(OC)c1ccccc1COc1ccn(-c2ccc(Cl)cc2)n1 [Pyraclostrobin] | 74.5 | Inactive | Inactive | 0.762 | 0.239 ± 0.13 | −42.1 ± 9.82 | −58.2 ± 4.17 | 0.539 ± 0.76 | 0.838 ± 0.771 | −80.0 ± 5.67 | −90.7 ± 11.9 |  |  |  | EC50 ([2]; HEK293, primary qHTS, viability counter screen, read-out: ERR-HEK293 Primary Viability EC50 (converted)): 40.9 µM; Percent inhibition of mRNA gene expression, Cytochrome C (cytochrome c; 1 µM): 11.0 ± 8.54%; Percent inhibition of mRNA gene expression, IDH3α (IDH3α; 1 µM): 5.06 ± 5.03%
2 | CC(C)(C)c1ccc(CSc2cnn(C(C)(C)C)c(=O)c2Cl)cc1 [Pyridaben] |  | Inactive | Inactive | 0.0245 ± 0.00942 | 0.00592 ± 0.000815 | −63.1 ± 29.7 | −57.6 ± 8.49 | 0.0434 ± 0.02 | 0.00781 ± 0.00301 | −94.1 ± 13.4 | −77.3 ± 4.10 | Inactive | potent antagonists | antagonism | PGC/ERR-HEK293 Primary Viability EC50 ([1]; primary qHTS): Inactive; Percent inhibition of mRNA gene expression, IDH3α (IDH3α; 15 nM): 14.6%
3 | C=C(C)[C@H]1Cc2c(ccc3c2O[C@@H]2COc4cc(OC)c(OC)cc4[C@@H]2C3=O)O1 [Rotenone] | 1.01 |  |  | 0.016 ± 0.00671 | 0.0133 ± 0.00476 |  |  | 0.0618 ± 0.061 | 0.00742 ± 0.00207 |  |  | Inactive | potent antagonists | antagonism | EC50 ([1]; HEK293, follow-up screen, read-out: PGC/ERR-HEK293 Follow-Up Viability EC50 (converted)): 2.97 µM; EC50 ([2]; HEK293, read-out: ERR-HEK293 Follow-Up Viability EC50): 0.429 µM; Percent inhibition of mRNA gene expression, Cytochrome C (cytochrome c; 175 nM): 27.3% and 27.3 ± 7.33%; Percent inhibition of mRNA gene expression, IDH3α (IDH3α; 175 nM): 22.4% and 22.4 ± 3.14%; ERR-HEK293 Follow-Up Efficacy ([3]; follow-up screen, relative to XCT790 = −100%): −95.8 ± 17.8%; ERR-HEK293 Primary Efficacy ([3]; primary qHTS, relative to XCT790 = −100%, DMSO = 0%): −92.4 ± 3.03%; PGC/ERR-HEK293 Follow-Up Efficacy ([5]; follow-up screen, negative = antagonism, positive = agonism): −41.9 ± 8.70%; PGC/ERR-HEK293 Primary Efficacy ([5]; primary qHTS, negative = antagonism, positive = agonism): −31.0 ± 4.14%; Percent inhibition of mRNA gene expression, COX4I1 (COX4I1): 2.34 ± 3.78%
